{"source": "patent US20150218238A1", "about": "“TREATING DISEASES BY MODULATING A SPECIFIC ISOFORM OF MKL1” (NOVARTIS FORSCHUNGSSTIFTUNG, ZWEIGNIEDERLASSUNG FRIEDRICH …, priority 2012, published 2015)", "system": "EcR-293 cells", "test": "MKL1 localization by immunofluorescence after LPA stimulation", "type": "cell-based", "settings": "50 μm LPA, 20 min", "procedure": "Cells were grown on 4-compartment plastic tissue culture dishes (Greiner Bio-One, Kremsmünster, Austria) and fixed with 100% methanol at −20° C. for 15 min. Anti-MKL1 total mAb hybridoma supernatant was diluted 1:4 in PBS and incubated on the cells for 1.5 h at RT. After washing with PBS, fluorescent secondary antibodies were applied for 1.5 h at RT to visualize the MKL1 staining (1:1000 in PBS). After washing, coverslips were mounted on the cells using ProLong Gold Antifade reagent (life Technologies/Invitrogen).\nOleoyl-α-lysophosphatidic acid (LPA) was purchased from Sigma-Aldrich (Buchs, Switzerland) and stock solutions were prepared in 1% BSA (Sigma-Aldrich)/PBS. EcR-293 cells stably overexpressing 5′UTR-MKL1_S or 5′UTR-MKL1_L were seeded on plastic dishes precoated with 0.4 mg/ml poly-L-lysine (Sigma-Aldrich) and starved overnight with D-MEM/0.3% FBS. After 18 h starvation, the cells were treated with 50 μm LPA for 0, 5, 20, or 60 min, and subsequently stained with anti-MKL1 total mAb (see immunofluorescence staining). After staining, MKL1 staining of strongly overexpressing cells was classified as predominantly cytosolic (nucleus clearly distinguishable as unstained), equally distributed, or predominantly nuclear (nucleus clearly distinguishable as stained)."}
{"substance": "Oleoyl-α-lysophosphatidic acid [LPA]", "values": [{"measurement": "cells showing nuclear staining", "setting": "starved EcR-293 cells expressing MKL1_L", "result": "very few"}, {"measurement": "cells showing partial or full nuclear MKL1 accumulation", "setting": "starved EcR-293 cells expressing MKL1_S", "result": "two thirds"}]}
